1 compound from patent publication US11814352B2, “Salts formed by 2-(1-acyloxy-n-pentyl) benzoic acid and basic amino acid or aminoguanidine, and preparation method and application thereof” (JIANGSU KANION PHARMACEUTICAL CO., LTD., priority 2018, dated 2023) can be followed below.

The nature of series [1]: Solubility test (saturated solubility in water). To be noted: 25±2° C.; for solubility at 30 min: 25 °C, thermodynamic from solid. It counts as physicochemical. As to the method:
Test method: 10 mg of a test sample (solid was ground into fine powder) was weighed and added to a certain amount of solvent at 25±2° C. (the temperature of a water bath is controlled at 25° C.), and the solution was shaken vigorously for 30 s every 5 min. The dissolution was observed within 30 min. When there were no visible solute particles or droplets, the test sample was regarded as completely dissolved.

The target of series [2] is hERG potassium channel of CHO-hERG cells (Homo sapiens, UniProt Q12809). The experiment in a line: Effect on hERG potassium channel (automatic patch clamp).
Series [3] can be described thus: Preliminary stability of sample solution in water and methanol. Particulars: 1 mg/mL stock prepared 2018 Jun. 25, analysed Jun. 29, Jul. 2, Jul. 7. The class given is physicochemical. As to the method: 2018 Jun. […] For each sample test, the stock solution was taken and diluted freshly.
2018 Jun. 29 200 μL of the stock solution was pipetted, 3800 μL of a mobile phase in the initial ratio was added, and 10 μL of a test sample with a concentration of 50 μg/mL was prepared for injection and analysis.
2018 Jul. 2 200 μL of the stock solution was pipetted, 3800 μL of a mobile phase in the initial ratio was added, and 10 μL of a test sample with a concentration of 50 μg/mL was prepared for injection and analysis.
2018 Jul. 7 200 μL of the stock solution was pipetted, 3800 μL of a mobile phase in the initial ratio was added, and 10 μL of a test sample with a concentration of 50 μg/mL was prepared for injection and analysis.
29, 2018 Jul. 2, and 2018 Jul.

In series [4] the test system is histidine-deficient TA97, TA98, TA100 and TA102 strains of Salmonella typhimurium. The experiment in a line: Bacterial reverse mutation test (Ames test). Particulars: 0.1-1000 μg/dish, with and without S9.
Experimental: The test bacteria are the histidine-deficient TA97, TA98, TA100 and TA102 strains of Salmonella typhimurium, and the dose range of the test sample is 0.1-1000 μg/dish.

In brackets after ≈: the same amount, converted by molar mass. Several values for one entry are separate records, joined by “and”; a condition that tells them apart may be missing. Identical values can stand only once. Like-named read-outs stand apart in the source and are kept apart here.

Chain of hERG potassium channel of CHO-hERG cells (Q12809 whole entry): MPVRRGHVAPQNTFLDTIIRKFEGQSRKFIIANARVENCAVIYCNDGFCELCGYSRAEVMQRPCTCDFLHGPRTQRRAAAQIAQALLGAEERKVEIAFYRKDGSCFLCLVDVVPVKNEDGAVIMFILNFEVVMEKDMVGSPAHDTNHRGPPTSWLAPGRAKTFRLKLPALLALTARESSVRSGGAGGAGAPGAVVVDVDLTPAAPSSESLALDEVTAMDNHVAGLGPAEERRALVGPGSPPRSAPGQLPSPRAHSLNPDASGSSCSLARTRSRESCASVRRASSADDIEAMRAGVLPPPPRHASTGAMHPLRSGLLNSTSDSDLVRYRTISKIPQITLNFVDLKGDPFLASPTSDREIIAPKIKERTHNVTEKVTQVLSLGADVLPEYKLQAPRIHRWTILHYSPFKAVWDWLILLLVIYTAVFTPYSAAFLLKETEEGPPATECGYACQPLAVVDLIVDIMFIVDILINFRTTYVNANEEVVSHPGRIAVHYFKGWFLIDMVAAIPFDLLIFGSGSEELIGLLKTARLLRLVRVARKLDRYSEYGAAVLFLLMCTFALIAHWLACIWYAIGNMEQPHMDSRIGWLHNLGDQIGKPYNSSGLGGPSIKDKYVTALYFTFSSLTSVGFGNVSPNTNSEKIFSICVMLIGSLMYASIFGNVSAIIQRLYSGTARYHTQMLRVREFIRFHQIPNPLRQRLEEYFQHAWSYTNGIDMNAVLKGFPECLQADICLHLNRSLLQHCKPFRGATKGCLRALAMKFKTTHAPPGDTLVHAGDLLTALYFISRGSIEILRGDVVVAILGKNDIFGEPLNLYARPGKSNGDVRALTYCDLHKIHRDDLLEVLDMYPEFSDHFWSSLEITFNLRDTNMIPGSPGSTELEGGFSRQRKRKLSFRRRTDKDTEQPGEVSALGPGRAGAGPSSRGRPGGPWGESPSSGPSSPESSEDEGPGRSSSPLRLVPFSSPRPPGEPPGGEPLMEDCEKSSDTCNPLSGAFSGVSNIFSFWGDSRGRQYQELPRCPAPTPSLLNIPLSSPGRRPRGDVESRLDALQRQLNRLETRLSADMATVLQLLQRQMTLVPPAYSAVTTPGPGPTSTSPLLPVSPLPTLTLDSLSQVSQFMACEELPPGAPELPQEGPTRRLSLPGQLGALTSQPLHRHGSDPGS

Regarding `CCCC[C@H](OC(C)=O)c1ccccc1C(=O)O` [I1s, L-Arginine (S)-2-(1-Acetoxy-n-Pentyl) Benzoate], the solubility at 30 min in series [1] (read-out: Saturated solubility in H2O, Mean) was 136 mg/mL (≈ 544 mM); in series [1] (read-out: Saturated solubility in H2O, dissolved sample amount (single determinations)) it was 134 mg/mL (≈ 535 mM). Besides, the “Saturated solubility in H2O, dissolved sample amount (single determinations)” value in series [1] is 134.24 mg/mL and 138.23 mg/mL and 138.40 mg/mL. In addition, in series [2], the IC50 was greater than 40 µM. Moreover, the “Stability of the sample solution in CH3OH” value in series [3] is reported as “basically stable”. The “Stability of the sample solution in H2O” value in series [3] is “basically stable”. The “Ames test result (mutagenicity)” value in series [4] is on record as “negative”.
